Data published in patent publication US8507010B2, “Compositions comprising quinazoline derivatives” (Shanghai Allist Pharmaceuticals, Inc., priority 2008, dated 2013).

Legend:
[1] = system: human ovarian cancer SKOV-3; test: Tumor-inhibitory effect on human ovarian cancer SKOV-3 grafted to a BALB/cA nude mouse; format: in vivo; conditions: for RTV: RTV=Vt/V0; for Volume of tumor (mm^3) V0: prior to the administration
Protocol: A SKOV-3 tumor tissue in vigorous growth period was selected and incised into uniform pieces with the size of about 1.5 mm^3, which was grafted subcutaneously to the right armpit of a BALB/cA nude mouse (Shanghai Institute of Materia Medica, Chinese Academy of Sciences, grade SPF) with a trocar under sterile conditions. The diameters of the grafted tumors on the nude mouse were measured with a vernier caliper. The animals were grouped randomly when the tumors grew to a size of 80 to 100 mm^3. The tested animal groups were intragastrically administered through mouth as mentioned above once a day for 3 consecutive weeks. The positive control drug MMC (Mitomycin) was intravenously administered once on the first day with a dose of 5 mg/kg (0.9% sterile sodium chloride solution). The negative control group was administered with 0.5% CMC-Na (Carboxymethyl Cellulose-Sodium) with a dose of 0.2 mL/per mouse. The long axis (a) and the short axis (b) of the tumors were measured twice every week and the nude mice were weighed at the same time. According to the formula V=ab^2/2, the volume (mm^3) of the tumor could be calculated. Relative tumor volume (RTV) was calculated from the measurement result (according to the formula: RTV=Vt/V0, wherein V0 is the tumor volume measured upon the grouping time of administration, and Vt is the tumor volume measured each time). The relative tumor proliferation rate T/C(%) was chosen as the index of evaluation of anti-tumor activity, by the formula: T/C(%)=(TRTV/CRTV)×100 TRTV: RTV of the treated group; CRTV: RTV of the negative control group
(§1) Human epidermoid squamous carcinoma A431 grafted to BALB/cA nude mouse is an animal model having high expression of EGFR (erbB-1), and human ovarian cancer SKOV-3 grafted to BALB/cA nude mouse is an animal model having high expression of erbB-2.

[2] = in vivo; conditions: male, SD, rat
Protocol: Intragastric administration (ig): 16 healthy SD rats (Shanghai Super-B&K Laboratory Animal Corp. Ltd., grade SPF), male, weighted 200-250 g, randomly divided into four groups, were each administered intragastrically with a drug: the compound prepared according to Example 1 (21.68 mg/kg), crystalline form A, crystalline form B, or crystalline form C (30 mg/kg) of p-toluenesulfonate of said compound. The blood samples were collected at 0.5 h, 1.0 h, 1.5 h, 2.0 h, 3.0 h, 5.0 h, 7.0 h, 9.0 h, 12 h, and 24 h after administration, which were then isolated to prepare the plasma. The concentrations of the drugs in the plasma were determined by means of liquid phase chromatography/tandem mass spectrometer (Agilent 1200LC/6410B), and the concentration-time curve was obtained.

[3] = system: human epidermoid squamous cancer cell A431; test: Tumor-inhibitory effect on human epidermoid squamous cancer cell A431 grafted to a BALB/cA nude mouse; format: in vivo; conditions: 13 successive days, 23 days after grafting
Protocol: A well-developed solid tumor A431 was selected and incised into several uniform pieces with the size of 2-3 mm under sterile conditions, with one piece being grafted subcutaneously to the right armpit of each of the BALB/cA nude mice using a trocar. 7 days after the grafting, the mice were grouped randomly and were intragastrically administrated through mouth for 13 successive days. The long axis (a) and the short axis (b) of the tumors were measured with a vernier caliper every 4 days. According to the formula V=ab^2/2, the volume of the tumor (mm^3) could be calculated. The tested animals were neck-off killed 23 days after the grafting, and anatomized to obtain the tumors. The tumors were weighed, and the tumor inhibition rate was calculated.
as §1

[4] = Study of stability at high temperature (60° C.); format: physicochemical; conditions: p-toluenesulfonate; for Purity (%): 60° C.; for thermal stability (in words): stored at 60° C. for 1 month
[5] = Study of light stability; format: physicochemical; conditions: p-toluenesulfonate; for light stability (in words): illumination 45001×±5001× for 1 month; for Purity (%): illumination 45001×±5001×
Description: The purity of the crystalline form A was detected at day 0, day 10 and day 30, thereby deducing light stability of crystalline form A. The light stability of each of crystalline forms B and C is obtained by the same approach.

[6] = Study of hygroscopicity (92.5% humidity); format: physicochemical; conditions: p-toluenesulfonate; for stability in highly humid surroundings (in words): 92.5% humidity for 1 month; for Purity (%): 92.5% humidity
[7] = 50 mg/kg ig once a day for 3 weeks
[8] = 100 mg/kg ig once a day for 3 weeks
[9] = 200 mg/kg ig once a day for 3 weeks
[10] = 5 mg/kg iv once on the first day

SMILES: C=CC(=O)Nc1ccc2ncnc(Nc3ccc(OCc4cccc(F)c4)c(Cl)c3)c2c1.Cc1ccc(S(=O)(=O)O)cc1 [Crystalline form A, N-{4-[3-chloro-4-(3-fluoro-benzyloxy)phenylamino]quinazolin-6-yl}-acrylamide p-toluenesulfonate]
- T/C (%) [1, 7]: 53.0%
- RTV [1, 7]: 5.1 ± 1.7
- Volume of tumor (mm^3) V21 ([1]; 50 mg/kg ig once a day, after administration for consecutive 3 weeks): 421 ± 89 mm^3
- Volume of tumor (mm^3) V0 ([1]; 50 mg/kg ig): 79 ± 28 mm^3
- T/C (%) [1, 8]: 45.0%
- RTV [1, 8]: 4.3 ± 1.3
- Volume of tumor (mm^3) V21 ([1]; 100 mg/kg ig once a day, after administration for consecutive 3 weeks): 345 ± 88 mm^3
- Volume of tumor (mm^3) V0 ([1]; 100 mg/kg ig): 87 ± 41 mm^3
- T/C (%) [1, 9]: 36.9%
- RTV [1, 9]: 3.5 ± 0.8
- Volume of tumor (mm^3) V21 ([1]; 200 mg/kg ig once a day, after administration for consecutive 3 weeks): 303 ± 72 mm^3
- Volume of tumor (mm^3) V0 ([1]; 200 mg/kg ig): 86 ± 13 mm^3
- inhibitory effect on the tumor (in words) ([1]; SKOV-3 grafted to BALB/cA nude mouse, high expression of erbB-2, p-toluenesulfonate): significant inhibitory effect on the tumor
- bioavailability ([2]; absolute bioavailability): 8.75%
- AUC(0-t) ([2]; po, 30 mg/kg): 977 ng·h/mL
- Cmax ([2]; po, 30 mg/kg): 187 ng/mL
- T1/2 ([2]; po, 30 mg/kg): 1.49 h
- Tmax ([2]; po, 30 mg/kg): 2.83 h
- Tumor-inhibitory rate % ([3]; 25 mg/kg ig): 29.99%
- Weight of animals (g) (tumor-off) ([3]; 25 mg/kg ig): 21.58 ± 2.18 g
- Weight of tumor (g) x ± SD ([3]; 25 mg/kg ig): 0.79 ± 0.20 g
- Tumor-inhibitory rate % ([3]; 50 mg/kg ig): 38.67%
- Weight of animals (g) (tumor-off) ([3]; 50 mg/kg ig): 22.87 ± 3.96 g
- Weight of tumor (g) x ± SD ([3]; 50 mg/kg ig): 0.69 ± 0.17 g
- Tumor-inhibitory rate % ([3]; 100 mg/kg ig): 43.63%
- Weight of animals (g) (tumor-off) ([3]; 100 mg/kg ig): 22.13 ± 1.83 g
- Weight of tumor (g) x ± SD ([3]; 100 mg/kg ig): 0.64 ± 0.23 g
- Purity (%) ([4]; day 0): 98.64%
- Purity (%) ([4]; day 10): 98.64%
- Purity (%) ([4]; day 30): 98.64%
- thermal stability (in words) [4]: excellent thermal stability
- light stability (in words) [5]: good light stability
- Purity (%) ([5]; day 0): 98.64%
- Purity (%) ([5]; day 10): 98.16%
- Purity (%) ([5]; day 30): 97.24%
- stability in highly humid surroundings (in words) [6]: very stable
- Purity (%) ([6]; day 0): 98.64%
- Purity (%) ([6]; day 10): 98.62%
- Purity (%) ([6]; day 30): 98.62%

SMILES: C=CC(=O)Nc1ccc2ncnc(Nc3ccc(OCc4cccc(F)c4)c(Cl)c3)c2c1.Cc1ccc(S(=O)(=O)O)cc1 [Crystalline form B, N-{4-[3-chloro-4-(3-fluoro-benzyloxy)phenylamino]quinazolin-6-yl}-acrylamide p-toluenesulfonate]
- absolute bioavailability [2]: 8.76%
- AUC(0-t) ([2]; po, 30 mg/kg): 978 ng·h/mL
- Cmax ([2]; po, 30 mg/kg): 253 ng/mL
- T1/2 ([2]; po, 30 mg/kg): 1.23 h
- Tmax ([2]; po, 30 mg/kg): 1.25 h
- Purity (%) ([4]; day 0): 99.26%
- Purity (%) ([4]; day 10): 99.21%
- Purity (%) ([4]; day 30): 99.11%
- thermal stability (in words) [4]: excellent thermal stability
- light stability (in words) [5]: excellent light stability
- Purity (%) ([5]; day 0): 99.26%
- Purity (%) ([5]; day 10): 99.26%
- Purity (%) ([5]; day 30): 99.24%
- stability in highly humid surroundings (in words) [6]: very stable
- Purity (%) ([6]; day 0): 99.26%
- Purity (%) ([6]; day 10): 99.25%
- Purity (%) ([6]; day 30): 99.24%

SMILES: C=CC(=O)Nc1ccc2ncnc(Nc3ccc(OCc4cccc(F)c4)c(Cl)c3)c2c1.Cc1ccc(S(=O)(=O)O)cc1 [Crystalline form C, N-{4-[3-chloro-4-(3-fluoro-benzyloxy)phenylamino]quinazolin-6-yl}-acrylamide p-toluenesulfonate]
- absolute bioavailability [2]: 5.17%
- Tmax ([2]; po, 30 mg/kg): 2.25 h
- AUC(0-t) ([2]; po, 30 mg/kg, AUC0-t): 577 ng·h/mL
- Cmax ([2]; po, 30 mg/kg, Cmax): 161 ng/mL
- half-life ([2]; po, 30 mg/kg, T1/2): 76.2 min
- Purity (%) ([4]; day 0): 99.03%
- Purity (%) ([4]; day 10): 97.08%
- Purity (%) ([4]; day 30): 97.55%
- thermal stability (in words) [4]: good thermal stability
- light stability (in words) [5]: good light stability
- Purity (%) ([5]; day 0): 99.03%
- Purity (%) ([5]; day 10): 98.54%
- Purity (%) ([5]; day 30): 98.42%
- stability in highly humid surroundings (in words) [6]: quite stable
- Purity (%) ([6]; day 0): 99.03%
- Purity (%) ([6]; day 10): 98.27%
- Purity (%) ([6]; day 30): 98.08%

SMILES: CO[C@@]12[C@H](COC(N)=O)C3=C(C(=O)C(C)=C(N)C3=O)N1C[C@@H]1N[C@@H]12 [MMC, Mitomycin, reference compound]
- RTV [1, 10]: 3.1 ± 0.5
- T/C (%) ([1]; 5 mg/kg iv once on the first day, T/C=(TRTV/CRTV)×100): 32.0%
- Volume of tumor (mm^3) V21 ([1]; 5 mg/kg iv once on the first day, after 3 weeks): 258 ± 77 mm^3
- Volume of tumor (mm^3) V0 [1, 10]: 83 ± 13 mm^3
